Experimental data as given in ChEMBL document CHEMBL4334512, “Rationally Designed, Conformationally Constrained Inverse Agonists of RORγt-Identification of a Potent, Selective Series with Biologic-Like in Vivo Efficacy” (J Med Chem, 2019).

Key:
[1] = molecular target: T1, Nuclear receptor subfamily 1 group I member 2 (Homo sapiens, UniProt O75469); test: Activity at PXR (unknown origin)
T1 sequence (O75469 whole entry): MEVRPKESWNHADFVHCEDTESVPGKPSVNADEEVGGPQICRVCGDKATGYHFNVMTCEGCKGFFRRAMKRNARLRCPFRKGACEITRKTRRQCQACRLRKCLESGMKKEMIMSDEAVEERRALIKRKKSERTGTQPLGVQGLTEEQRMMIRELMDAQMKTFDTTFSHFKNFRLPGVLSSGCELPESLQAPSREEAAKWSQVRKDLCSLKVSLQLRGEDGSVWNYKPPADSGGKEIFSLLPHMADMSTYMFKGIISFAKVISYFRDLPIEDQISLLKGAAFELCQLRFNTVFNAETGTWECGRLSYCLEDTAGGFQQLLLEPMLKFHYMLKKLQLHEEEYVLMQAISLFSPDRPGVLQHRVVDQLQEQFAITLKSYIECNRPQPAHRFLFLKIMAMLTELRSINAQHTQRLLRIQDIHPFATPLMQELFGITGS

[2] = molecular target: T2, Nuclear receptor ROR-gamma (Homo sapiens, UniProt P51449); test: Inverse agonist activity at full length human RORgammat expressed in human Jurkat cells assessed as inhibition of constitutive receptor activity incubated for 18 hrs by Gal4-Luc reporter gene assay; assay type: cell-based
T2 sequence (P51449 whole entry): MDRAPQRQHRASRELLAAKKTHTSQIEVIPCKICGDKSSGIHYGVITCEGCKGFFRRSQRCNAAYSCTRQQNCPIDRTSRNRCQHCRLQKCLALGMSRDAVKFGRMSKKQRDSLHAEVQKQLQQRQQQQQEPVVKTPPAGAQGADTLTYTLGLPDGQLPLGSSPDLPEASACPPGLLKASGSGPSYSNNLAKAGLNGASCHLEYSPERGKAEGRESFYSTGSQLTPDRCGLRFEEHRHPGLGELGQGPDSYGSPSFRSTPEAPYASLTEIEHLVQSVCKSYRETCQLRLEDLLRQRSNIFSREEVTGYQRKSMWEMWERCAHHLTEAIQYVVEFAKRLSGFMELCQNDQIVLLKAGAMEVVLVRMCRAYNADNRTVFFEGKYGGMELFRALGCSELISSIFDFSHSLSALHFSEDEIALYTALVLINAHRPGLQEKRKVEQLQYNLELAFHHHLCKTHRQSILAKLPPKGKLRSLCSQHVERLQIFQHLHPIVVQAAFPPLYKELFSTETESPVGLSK

[3] = Half life in mouse liver microsomes; assay type: ADME, Microsome
[4] = molecular target: T3, Nuclear receptor ROR-beta (Homo sapiens, UniProt Q92753); test: Activity at RORbeta (unknown origin)
T3 sequence (Q92753 whole entry): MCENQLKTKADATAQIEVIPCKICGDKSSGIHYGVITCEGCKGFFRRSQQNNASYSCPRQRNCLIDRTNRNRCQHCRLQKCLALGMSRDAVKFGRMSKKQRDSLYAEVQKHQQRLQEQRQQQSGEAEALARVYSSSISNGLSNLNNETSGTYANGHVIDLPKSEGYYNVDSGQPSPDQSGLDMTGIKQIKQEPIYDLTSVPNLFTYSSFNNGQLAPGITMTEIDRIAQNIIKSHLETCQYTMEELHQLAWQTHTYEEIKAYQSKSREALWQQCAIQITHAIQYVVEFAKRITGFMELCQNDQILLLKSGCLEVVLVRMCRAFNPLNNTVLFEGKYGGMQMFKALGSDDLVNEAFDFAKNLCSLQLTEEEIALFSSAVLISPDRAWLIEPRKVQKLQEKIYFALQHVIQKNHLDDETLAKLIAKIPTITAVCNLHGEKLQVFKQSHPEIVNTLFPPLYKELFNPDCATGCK

[5] = molecular target: T4, Oxysterols receptor LXR-beta (Homo sapiens, UniProt P55055); test: Activity at LXRbeta (unknown origin)
T4 sequence (P55055 whole entry): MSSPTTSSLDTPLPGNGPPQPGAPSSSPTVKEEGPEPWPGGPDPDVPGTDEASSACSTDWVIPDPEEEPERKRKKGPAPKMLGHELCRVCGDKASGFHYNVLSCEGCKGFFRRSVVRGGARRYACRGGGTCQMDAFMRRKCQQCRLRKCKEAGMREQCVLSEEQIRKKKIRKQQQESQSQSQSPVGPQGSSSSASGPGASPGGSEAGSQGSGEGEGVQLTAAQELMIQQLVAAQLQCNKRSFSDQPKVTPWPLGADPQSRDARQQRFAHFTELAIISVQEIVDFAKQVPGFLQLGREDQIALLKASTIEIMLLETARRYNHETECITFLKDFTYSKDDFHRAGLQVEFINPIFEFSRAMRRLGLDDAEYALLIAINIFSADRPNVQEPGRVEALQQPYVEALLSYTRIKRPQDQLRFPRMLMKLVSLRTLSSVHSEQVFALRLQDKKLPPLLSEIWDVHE

[6] = Half life in rat liver microsomes; assay type: ADME, Microsome
[7] = Half life in human liver microsomes; assay type: ADME, Microsome
[8] = molecular target: T5, Nuclear receptor ROR-alpha (Homo sapiens, UniProt P35398); test: Activity at RORalpha (unknown origin)
T5 sequence (P35398 whole entry): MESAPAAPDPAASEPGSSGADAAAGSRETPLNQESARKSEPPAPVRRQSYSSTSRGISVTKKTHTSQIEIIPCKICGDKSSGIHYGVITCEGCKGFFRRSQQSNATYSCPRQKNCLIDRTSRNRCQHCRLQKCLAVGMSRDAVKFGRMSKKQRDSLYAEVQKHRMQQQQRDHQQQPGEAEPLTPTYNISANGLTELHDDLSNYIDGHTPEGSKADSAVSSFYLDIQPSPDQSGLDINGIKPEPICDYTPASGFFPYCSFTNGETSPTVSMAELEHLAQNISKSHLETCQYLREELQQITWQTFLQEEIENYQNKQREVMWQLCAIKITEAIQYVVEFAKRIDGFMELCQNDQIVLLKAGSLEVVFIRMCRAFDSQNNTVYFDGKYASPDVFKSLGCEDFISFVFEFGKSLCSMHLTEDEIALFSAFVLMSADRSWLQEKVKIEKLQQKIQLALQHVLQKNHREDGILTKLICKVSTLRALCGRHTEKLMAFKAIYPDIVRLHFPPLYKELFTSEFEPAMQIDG

[9] = molecular target: T6, Oxysterols receptor LXR-alpha (Homo sapiens, UniProt Q13133); test: Activity at LXRalpha (unknown origin)
T6 sequence (Q13133 whole entry): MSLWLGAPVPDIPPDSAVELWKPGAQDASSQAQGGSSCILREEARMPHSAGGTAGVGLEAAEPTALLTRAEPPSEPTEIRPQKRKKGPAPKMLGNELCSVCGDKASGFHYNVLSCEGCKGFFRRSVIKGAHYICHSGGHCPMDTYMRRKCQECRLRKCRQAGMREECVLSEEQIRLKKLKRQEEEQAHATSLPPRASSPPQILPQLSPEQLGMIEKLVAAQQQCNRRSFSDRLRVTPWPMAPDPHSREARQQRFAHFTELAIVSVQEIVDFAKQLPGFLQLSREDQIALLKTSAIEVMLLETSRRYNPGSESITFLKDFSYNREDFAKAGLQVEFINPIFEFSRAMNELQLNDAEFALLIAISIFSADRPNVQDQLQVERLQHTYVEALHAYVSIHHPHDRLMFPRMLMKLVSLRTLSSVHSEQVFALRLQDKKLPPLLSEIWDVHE

[10] = molecular target: T2, Nuclear receptor ROR-gamma; test: Inverse agonist activity at RORgammat in CD3 and CD28-stimulated human whole blood assessed as reduction in IL17A production incubated for 1 hr before CD3 and CD28 stimulation for 20 hrs by AlphaLISA method; assay type: tissue-based
[11] = Unbound fraction in human serum; assay type: ADME, cell-free
[12] = Drug level in Balb/c mouse at 10 mg/kg, po after 24 hrs; assay type: ADME, organism-based; details: in vivo, read-out: Drug uptake
[13] = Cmax in Balb/c mouse at 10 mg/kg, po; assay type: ADME, organism-based; parameters: dose 10 mg/kg, route oral; details: in vivo

| SMILES | IC50 [1] [µM] | EC50 [2] [µM] | half-life [3] [h] | IC50 [4] [µM] | IC50 [5] [µM] | half-life [6] [h] | half-life [7] [h] | IC50 [8] [µM] | IC50 [9] [µM] | EC50 [10] [µM] | fraction unbound [11] | concentration at 24 h [12] [nM] | Cmax [13] [nM] |
| --- | --- | --- | --- | --- | --- | --- | --- | --- | --- | --- | --- | --- | --- |
| CN1C[C@H]2N(C(=O)C3(O)CCS(=O)(=O)CC3)CC[C@@]2(S(=O)(=O)c2ccc(F)cc2)c2ccc(C(F)(C(F)(F)F)C(F)(F)F)cc21 | > 40 | 0.02 | 0.433 | > 10 | > 10 | 1.4 | > 2 | > 10 | > 10 | 0.083 | 0.003 |  |  |
| O=C(O)[C@H]1CC[C@](O)(C(=O)N2CC[C@@]3(S(=O)(=O)c4ccc(F)cc4)c4ccc(C(F)(C(F)(F)F)C(F)(F)F)cc4CC[C@@H]23)CC1 | > 40 |  | > 2 | > 10 | > 10 | > 2 | 1.65 | > 10 | > 10 |  |  | 260 | 2500 |
| O=C(O)[C@H]1CC[C@H](C(=O)N2CC[C@@]3(S(=O)(=O)c4ccc(F)cc4)c4ccc(C(F)(C(F)(F)F)C(F)(F)F)cc4CC[C@@H]23)CC1 | > 40 |  | > 2 | > 10 | > 10 | > 2 | > 2 | > 10 | > 10 |  |  | 1600 | 8600 |
| O=C(N1CC[C@@]2(S(=O)(=O)c3ccc(F)cc3)c3ccc(C(F)(C(F)(F)F)C(F)(F)F)cc3NC[C@@H]12)C1(O)CCS(=O)(=O)CC1 | > 40 |  |  | > 10 | > 10 |  |  | > 10 | > 10 |  | 0.006 |  |  |
| O=C(O)[C@H]1CC[C@](F)(C(=O)N2CC[C@@]3(S(=O)(=O)c4ccc(F)cc4)c4ccc(C(F)(C(F)(F)F)C(F)(F)F)cc4CC[C@@H]23)CC1 | > 40 | 0.015 | > 2 | > 10 | > 10 | > 2 | > 2 | > 10 | > 10 | 0.046 |  |  |  |
| O=C(O)C12CCC(C(=O)N3CC[C@@]4(S(=O)(=O)c5ccc(F)cc5)c5ccc(C(F)(C(F)(F)F)C(F)(F)F)cc5CC[C@@H]34)(CC1)CC2 | > 40 |  | > 2 | > 10 | > 10 | > 2 | > 2 | > 10 | > 10 |  |  | 1000 | 9300 |
| CCN1C[C@H]2N(C(=O)[C@H]3CC[C@H](C(=O)O)CC3)CC[C@@]2(S(=O)(=O)c2ccc(F)cc2)c2ccc(C(F)(C(F)(F)F)C(F)(F)F)cc21 | > 40 |  | > 2 | > 10 | > 10 | > 2 | > 2 | > 10 | > 10 |  | 0.005 | 3000 | 13000 |
| O=C(O)[C@H]1CC[C@H](C(=O)N2CC[C@@]3(S(=O)(=O)c4ccccc4)c4ccc(C(F)(C(F)(F)F)C(F)(F)F)cc4CC[C@@H]23)CC1 | > 40 |  | > 2 | > 10 | > 10 | > 2 | > 2 | > 10 | > 10 |  |  | 740 | 6900 |
| O=C(O)[C@H]1CC[C@H](C(=O)N2CC[C@@]3(S(=O)(=O)c4ccc(F)cc4)c4ccc(C(F)(C(F)(F)F)C(F)(F)F)cc4NC[C@@H]23)CC1 | > 40 |  | > 2 | > 10 | > 10 | > 2 | > 2 | > 10 | > 10 |  | 0.014 |  |  |
| CN1C[C@H]2N(C(=O)[C@H]3CC[C@H](C(=O)O)CC3)CC[C@@]2(S(=O)(=O)c2ccc(F)cc2)c2ccc(C(F)(C(F)(F)F)C(F)(F)F)cc21 | > 40 |  | > 2 | > 10 | > 10 | > 2 | > 2 | > 10 | > 10 |  | 0.024 | 710 | 10000 |
| O=C(O)[C@H]1CC[C@H](C(=O)N2CC[C@@]3(S(=O)(=O)c4ccc(Cl)cc4)c4ccc(C(F)(C(F)(F)F)C(F)(F)F)cc4CC[C@@H]23)CC1 | > 40 |  | > 2 | > 10 | > 10 | > 2 | > 2 | > 10 | > 10 |  |  |  |  |
| CCCN1C[C@H]2N(C(=O)[C@H]3CC[C@H](C(=O)O)CC3)CC[C@@]2(S(=O)(=O)c2ccc(F)cc2)c2ccc(C(F)(C(F)(F)F)C(F)(F)F)cc21 | > 40 |  | > 2 | > 10 | > 10 | 1.77 | 1.53 | > 10 | > 10 |  | 0.002 |  |  |
| O=C(O)[C@H]1CC[C@H](C(=O)N2CC[C@@]3(S(=O)(=O)c4ccc(F)cc4)c4ccc(C(F)(C(F)(F)F)C(F)(F)F)cc4OC[C@@H]23)CC1 | > 40 |  | > 2 | > 10 | > 10 | > 2 | > 2 | > 10 | > 10 |  | 0.003 |  |  |
